Eleven compounds from patent US12129246B1, “Hydroquinazoline derivatives for the treatment of a disease or disorder” (Novartis AG, priority 2023, dated 2024) can be followed below.

One experiment addresses T1, human NPR1 (Homo sapiens, UniProt P16066).
T1 construct: host or cells: CHO-K1
T1 sequence (P16066 33-1061): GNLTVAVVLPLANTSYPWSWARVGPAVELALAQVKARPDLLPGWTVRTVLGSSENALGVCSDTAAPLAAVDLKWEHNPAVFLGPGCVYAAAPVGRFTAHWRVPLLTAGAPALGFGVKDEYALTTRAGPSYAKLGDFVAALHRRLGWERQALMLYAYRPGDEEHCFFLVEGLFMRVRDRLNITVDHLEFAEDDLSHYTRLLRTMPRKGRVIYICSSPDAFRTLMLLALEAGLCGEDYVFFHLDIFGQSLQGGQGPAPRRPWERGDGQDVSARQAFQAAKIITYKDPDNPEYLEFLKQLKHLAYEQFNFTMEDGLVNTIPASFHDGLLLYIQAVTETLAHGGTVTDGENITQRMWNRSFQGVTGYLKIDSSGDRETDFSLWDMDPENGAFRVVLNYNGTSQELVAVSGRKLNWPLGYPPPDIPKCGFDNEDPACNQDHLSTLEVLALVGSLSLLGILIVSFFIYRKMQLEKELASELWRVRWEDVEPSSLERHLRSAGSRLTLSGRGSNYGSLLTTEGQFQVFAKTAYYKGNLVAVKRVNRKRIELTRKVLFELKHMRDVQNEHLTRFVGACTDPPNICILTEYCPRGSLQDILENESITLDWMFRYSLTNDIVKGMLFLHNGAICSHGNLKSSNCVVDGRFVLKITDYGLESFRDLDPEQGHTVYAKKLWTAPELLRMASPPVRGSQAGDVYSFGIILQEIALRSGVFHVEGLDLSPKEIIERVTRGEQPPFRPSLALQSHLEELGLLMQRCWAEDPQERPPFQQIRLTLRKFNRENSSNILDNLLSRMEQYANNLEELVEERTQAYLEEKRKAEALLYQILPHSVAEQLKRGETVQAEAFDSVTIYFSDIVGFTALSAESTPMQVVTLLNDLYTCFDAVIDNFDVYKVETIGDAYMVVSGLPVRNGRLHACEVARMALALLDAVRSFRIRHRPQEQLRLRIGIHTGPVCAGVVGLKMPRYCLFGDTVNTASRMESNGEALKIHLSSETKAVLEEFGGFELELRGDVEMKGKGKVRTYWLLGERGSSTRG
As to the kind of experiment: Cellular cGMP production assay, human NPR1 expressing CHO-K1 cells (CisBio HTRF). Conditions: for AC50: cGMP production, 30 min at 37° C., 12-point dose-response from 30 μM; for Human NPR1 Amax (% of ANP): maximum cGMP production as percentage of the maximum cGMP produced with ANP. In kind it is cell-based. On the procedure: (§1) Cellular cGMP is a major second messenger that mediates cell activities and is synthesized by activated NPR1 triggered by binding of the natural ligand ANP. […] The assay was performed according to manufacturer's instructions with minor deviations. […] All compound stocks were diluted in PBS+0.1% BSA at 2-fold the final assay concentration. After addition of 10 μL/well of assay buffer (PBS+0.1% BSA+1 mM IBMX) and 10 μL/well of the compounds in different concentrations (12-point dose-response with 3-fold dilutions from a top concentration of 30 μM), the plate was incubated for 30 min at 37° C. to allow for cGMP production. In parallel, a standard curve using a calibrator (contained in the kit) was generated. The cells were lysed and a mix of cGMP-d2 and anti-cGMP-cryptate was added and incubated for 1 h at room temperature. The readout was performed using an Envision plate reader (PerkinElmer) with an excitation wavelength of 317 nm and an emission wavelength of 665 nm. cGMP concentration (Delta F [° %]) was calculated according to the following formulae: […]
For orientation: TR-FRET usually uses a lanthanide donor and a delayed reading to cut background.

The next experiment deals with monkey NPR1 (Macaca fascicularis, UniProt A0A7N9DBT9). In words: Cellular cGMP production assay, monkey NPR1 expressing CHO-K1 cells (CisBio HTRF). In kind it is cell-based. Conditions: for Monkey NPR1 Amax (% of ANP): maximum cGMP production as percentage of the maximum cGMP produced with ANP. On the procedure:
as §1

Where [1] appears, read: cGMP production, monkey NPR1 CHO-K1 cells, 30 min at 37° C., 12-point dose-response from 30 μM, read-out: Monkey NPR1 AC50.

Read-outs that look alike come from different tables or passages of the source.

Sequence of monkey NPR1 (A0A7N9DBT9 entry or part of it): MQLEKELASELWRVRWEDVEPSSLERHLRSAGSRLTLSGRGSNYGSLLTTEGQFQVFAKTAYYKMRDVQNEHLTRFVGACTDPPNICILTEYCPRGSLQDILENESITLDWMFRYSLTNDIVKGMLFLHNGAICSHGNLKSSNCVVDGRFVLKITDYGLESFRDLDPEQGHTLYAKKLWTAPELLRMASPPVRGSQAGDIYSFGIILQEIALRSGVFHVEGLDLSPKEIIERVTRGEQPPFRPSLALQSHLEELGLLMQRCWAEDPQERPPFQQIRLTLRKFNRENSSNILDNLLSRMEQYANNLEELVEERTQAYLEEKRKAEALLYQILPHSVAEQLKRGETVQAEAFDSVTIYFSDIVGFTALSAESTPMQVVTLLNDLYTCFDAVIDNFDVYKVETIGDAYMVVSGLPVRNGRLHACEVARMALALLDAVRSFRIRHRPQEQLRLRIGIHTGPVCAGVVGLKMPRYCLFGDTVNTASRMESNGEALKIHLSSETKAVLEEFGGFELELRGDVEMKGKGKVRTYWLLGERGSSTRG

Usually AC50 stands for the concentration at which the activity in the assay is half-maximal. Consider `CC[C@@H](Nc1nc2c(c(N[C@@H](CN3CCCC3)c3ccccc3)n1)C[C@@H](c1ccccc1)CC2)[C@H]1CC[C@H](C(=O)O)CC1` [Compound 115, (1R,4r)-4-((R)-1-(((S)-6-phenyl-4-(((R)-1-phenyl-2-(pyrrolidin-1-yl)ethyl)amino)-5,6,7,8-tetrahydroquinazolin-2-yl)amino)propyl)cyclohexane-1-carboxylic acid], for which the values for the AC50 at human NPR1 and on monkey NPR1 (setting [1]) were 474 nM and 387 nM, respectively. Also, the “Human NPR1 Amax (% of ANP)” value on human NPR1 is reported as 111.049 % of ANP. The “Monkey NPR1 Amax (% of ANP)” value on monkey NPR1 (monkey NPR1 CHO-K1 cells) is 106.285 % of ANP.
With `CC[C@H]([C@H]1CC[C@H](C(=O)O)CC1)N(C)c1nc2c(c(N[C@@H](CN3CCCCC3)c3cnn(CC4CC4)c3)n1)C[C@H](c1ccccc1)CC2` [Compound 147, (1R,4r)-4-((R)-1-(((R)-4-(((R)-1-(1-(cyclopropylmethyl)-1H-pyrazol-4-yl)-2-(piperidin-1-yl)ethyl)amino)-6-phenyl-5,6,7,8-tetrahydroquinazolin-2-yl)(methyl)amino)propyl)cyclohexane-1-carboxylic acid], on human NPR1, half-maximal activity (AC50) was put at 1080 nM and the “Human NPR1 Amax (% of ANP)” value is listed as 97.612 % of ANP. Besides, the AC50 at monkey NPR1 (setting [1]) was 671 nM. Further, the “Monkey NPR1 Amax (% of ANP)” value on monkey NPR1 (monkey NPR1 CHO-K1 cells) was 101.537 % of ANP.
Turning to `CC[C@H]([C@H]1CC[C@H](C(=O)O)CC1)N(C)c1nc2c(c(N[C@@H](CN3CCC[C@H](C)C3)c3cnn(C)c3)n1)C[C@H](c1ccccc1)CC2` [Compound 40, (1R,4r)-4-((R)-1-(methyl((R)-4-(((R)-1-(1-methyl-1H-pyrazol-4-yl)-2-((S)-3-methylpiperidin-1-yl)ethyl)amino)-6-phenyl-5,6,7,8-tetrahydroquinazolin-2-yl)amino)propyl)cyclohexane-1-carboxylic acid], on human NPR1, the AC50 is 166 nM and the “Human NPR1 Amax (% of ANP)” value is on record as 102.476 % of ANP. Besides, the AC50 at monkey NPR1 (setting [1]) was found to be 127 nM. The “Monkey NPR1 Amax (% of ANP)” value on monkey NPR1 (monkey NPR1 CHO-K1 cells) was 105.150 % of ANP.
For `CC[C@@H](Nc1nc2c(c(N[C@@H](CN3CCC(F)CC3)c3cnn(C)c3)n1)C[C@H](c1ccccc1)CC2)[C@H]1CC[C@H](C(=O)O)CC1` [Compound 142, (1R,4r)-4-((R)-1-(((R)-4-(((R)-2-(4-fluoropiperidin-1-yl)-1-(1-methyl-1H-pyrazol-4-yl)ethyl)amino)-6-phenyl-5,6,7,8-tetrahydroquinazolin-2-yl)amino)propyl)cyclohexane-1-carboxylic acid], in that order: 901 nM, 107.815 % of ANP, 313 nM and 95.614 % of ANP.
In the same order, the values of `O=C(O)[C@H]1CC[C@H](C(CC2CC2)Nc2nc3c(c(N[C@@H](CN4CCCC4)c4ccccc4)n2)CC(c2ccccc2)CC3)CC1` (stereo partly drawn) [Compound 139, (1R,4r)-4-((1R)-2-cyclopropyl-1-((6-phenyl-4-(((R)-1-phenyl-2-(pyrrolidin-1-yl)ethyl)amino)-5,6,7,8-tetrahydroquinazolin-2-yl)amino)ethyl)cyclohexane-1-carboxylic acid] are 876 nM, 105.089 % of ANP, 696 nM and 111.911 % of ANP.
Turning to `CC[C@H]([C@H]1CC[C@H](C(=O)O)CC1)N(C)c1nc2c(c(N[C@@H](CN3CCCCC3)c3ccc(=O)n(CC)c3)n1)C[C@H](c1ccccc1)CC2` [Compound 148, (1R,4r)-4-((R)-1-(((R)-4-(((R)-1-(1-ethyl-6-oxo-1,6-dihydropyridin-3-yl)-2-(piperidin-1-yl)ethyl)amino)-6-phenyl-5,6,7,8-tetrahydroquinazolin-2-yl)(methyl)amino)propyl)cyclohexane-1-carboxylic acid], on human NPR1, the AC50 was determined as 1080 nM and the “Human NPR1 Amax (% of ANP)” value is listed as 93.518 % of ANP. For the same compound, the AC50 on monkey NPR1 (setting [1]) turned out to be 834 nM. For the same compound, at monkey NPR1 (monkey NPR1 CHO-K1 cells), the “Monkey NPR1 Amax (% of ANP)” value is listed as 102.851 % of ANP.
For the compound `CC[C@@H](Nc1nc2c(c(N[C@@H](CN3C4CCCC3CC4)c3csc(C)n3)n1)C[C@H](c1cccc(F)c1)CC2)[C@H]1CC[C@H](C(=O)O)CC1` [Compound 127, (1R,4r)-4-((1R)-1-(((6R)-4-(((1S)-2-(8-azabicyclo[3.2.1]octan-8-yl)-1-(2-methylthiazol-4-yl)ethyl)amino)-6-(3-fluorophenyl)-5,6,7,8-tetrahydroquinazolin-2-yl)amino)propyl)cyclohexane-1-carboxylic acid], at human NPR1, the AC50 was 623 nM and the “Human NPR1 Amax (% of ANP)” value is 102.596 % of ANP. Further, the activity at monkey NPR1 was half-maximal at 355 nM (AC50). Moreover, the “Monkey NPR1 Amax (% of ANP)” value on monkey NPR1 (monkey NPR1 CHO-K1 cells) is given as 102.089 % of ANP.
In the case of `CC[C@H]([C@H]1CC[C@H](C(=O)O)CC1)N(C)c1nc2c(c(N[C@@H](CN3CC4CCC3C4)c3ccccc3)n1)C[C@H](c1ccccc1)CC2` (stereo partly drawn) [Compound 136, (1R,4r)-4-((1R)-1-(((6R)-4-(((1R)-2-(2-azabicyclo[2.2.1]heptan-2-yl)-1-phenylethyl)amino)-6-phenyl-5,6,7,8-tetrahydroquinazolin-2-yl)(methyl)amino)propyl)cyclohexane-1-carboxylic acid], at human NPR1, the AC50 stood at 812 nM and the “Human NPR1 Amax (% of ANP)” value is given as 103.913 % of ANP. Besides, the AC50 on monkey NPR1 (setting [1]) was 516 nM. Further, the “Monkey NPR1 Amax (% of ANP)” value on monkey NPR1 (monkey NPR1 CHO-K1 cells) is 96.754 % of ANP.
For `CC[C@H]([C@H]1CC[C@H](C(=O)O)CC1)N(C)c1nc2c(c(N[C@@H](CN3CCC[C@H](C)C3)c3cnn(C)c3)n1)CN(c1cccc(C#N)c1)CC2` [Compound 174, (1R,4r)-4-((R)-1-((6-(3-cyanophenyl)-4-(((R)-1-(1-methyl-1H-pyrazol-4-yl)-2-((S)-3-methylpiperidin-1-yl)ethyl)amino)-5,6,7,8-tetrahydropyrido[4,3-d]pyrimidin-2-yl)(methyl)amino)propyl)cyclohexane-1-carboxylic acid], in that order: 14 nM, 93.788 % of ANP, 10 nM and 97.462 % of ANP.
In the same order, the values of `CC[C@@H](Nc1nc2c(c(N[C@@H](CN3CC4CCC3C4)c3cnn(C)c3)n1)C[C@H](c1ccccc1)CC2)[C@H]1CC[C@H](C(=O)O)CC1` (stereo partly drawn) [Compound 58, (1R,4r)-4-((1R)-1-(((6R)-4-(((1R)-2-(2-azabicyclo[2.2.1]heptan-2-yl)-1-(1-methyl-1H-pyrazol-4-yl)ethyl)amino)-6-phenyl-5,6,7,8-tetrahydroquinazolin-2-yl)amino)propyl)cyclohexane-1-carboxylic acid] are 201 nM, 99.715 % of ANP, 149 nM and 95.422 % of ANP.
Turning to `CC[C@H]([C@H]1CC[C@H](C(=O)O)CC1)N(C)c1nc2c(c(N[C@@H](CN3CCCC[C@@H]3CO)c3cnn(C)c3)n1)C[C@H](c1ccccc1)CC2` [Compound 149, (1R,4r)-4-((R)-1-(((R)-4-(((R)-2-((R)-2-(hydroxymethyl)piperidin-1-yl)-1-(1-methyl-1H-pyrazol-4-yl)ethyl)amino)-6-phenyl-5,6,7,8-tetrahydroquinazolin-2-yl)(methyl)amino)propyl)cyclohexane-1-carboxylic acid], the AC50 on human NPR1 was found to be 1140 nM; at monkey NPR1 (setting [1]), 1020 nM. For the same compound, the “Human NPR1 Amax (% of ANP)” value at human NPR1 is reported as 130.209 % of ANP. Further, the “Monkey NPR1 Amax (% of ANP)” value at monkey NPR1 (monkey NPR1 CHO-K1 cells) was 164.167 % of ANP.
